Data as given in ChEMBL document CHEMBL1201862, “PubChem BioAssay data set” (2004).
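Tested at 5 concentrations; 48 h exposure; 96-well plates; endpoints linearly interpolated, else capped at highest concentration. GI50 is the concentration that inhibits growth by half.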 Active and inactive are the calls of the source. No stated cut-off is given here; in the data, active = GI50 up to about 1.1 µM and inactive = higher.

Columns and labels:
Experiment in all cases: NCI anticancer screen, dose series, 48 h
[1] = system: CCRF-CEM
[2] = system: NCI-H522
[3] = system: HL-60
[4] = system: UO-31
[5] = system: UACC-257
[6] = system: SF-539
[7] = system: M19-MEL
[8] = system: KM-20L2
[9] = system: SK-OV-3
[10] = system: ACHN
[11] = system: SNB-19
[12] = system: LXFL 529
[13] = system: IGROV-1
[14] = system: RPMI-8226
[15] = system: SK-MEL-2
[16] = system: M14
[17] = system: DMS-114
[18] = system: COLO 205
[19] = system: U-251
[20] = system: SF-268
[21] = system: RXF 393
[22] = system: SNB-75
[23] = system: UACC-62
[24] = system: HOP-92
[25] = system: NCI-H23
[26] = system: SNB-78
[27] = system: OVCAR-4
[28] = system: HT-29
[29] = system: K562
[30] = system: OVCAR-5
[31] = system: OVCAR-3
[32] = system: HOP-62
[33] = system: NCI-H460
[34] = system: SF-295
[35] = system: SK-MEL-28
[36] = system: KM12
[37] = system: Malme-3M
[38] = system: HCT-116
[39] = system: SR
[40] = system: NCI-H226
[41] = system: MDA-MB-435
[42] = system: SW-620
[43] = system: HCT-15
[44] = system: 786-0
[45] = system: MDA-MB-231
[46] = system: SK-MEL-5
[47] = system: MDA-N
[48] = system: HCC 2998
[49] = system: Hs-578T
[50] = system: MCF7
[51] = system: NCI/ADR-RES
[52] = system: EKVX
[53] = system: T47D
[54] = system: DU-145
[55] = system: TK-10
[56] = system: MOLT-4
[57] = system: SN12C
[58] = system: BT-549
[59] = system: A549
[60] = system: CAKI-1
[61] = system: OVCAR-8
[62] = system: PC-3
[63] = system: A498
[64] = system: LOX IMVI

Q: Which GI50 [1] does the source give for CCc1c(O)c(O)c(C(C)=O)c2c(O)c(-c3c(C)cc4c(CC)c(O)c(O)c(C(C)=O)c4c3O)c(C)cc12 here?
A: 2.7 µM (inactive)

Q: What about the GI50 [2] of the same compound?
A: 2.92 µM (inactive)

Q: What about the GI50 [3] of the same compound?
A: 3.08 µM (inactive)

Q: And the GI50 [4]?
A: 6.49 µM (inactive)

Q: What about the GI50 [5] of the same compound?
A: 11.1 µM (inactive)

Q: What about the GI50 [6] of the same compound?
A: 9.04 µM (inactive)

Q: What about the GI50 [7] of the same compound?
A: 11.2 µM (inactive)

Q: And the GI50 [8]?
A: 4.69 µM (inactive)

Q: What about the GI50 [9] of the same compound?
A: > 10 µM (inactive)

Q: And the GI50 [10]?
A: 12 µM (inactive)

Q: What about the GI50 [11] of the same compound?
A: 7.67 µM (inactive)

Q: And the GI50 [12]?
A: 4.56 µM (inactive)

Q: And the GI50 [13]?
A: 5.52 µM (inactive)

Q: What about the GI50 [14] of the same compound?
A: 3.97 µM (inactive)

Q: And the GI50 [15]?
A: 7.53 µM (inactive)

Q: What about the GI50 [16] of the same compound?
A: 8.75 µM (inactive)

Q: What about the GI50 [17] of the same compound?
A: 5.35 µM (inactive)

Q: What about the GI50 [18] of the same compound?
A: 6.79 µM (inactive)

Q: And the GI50 [19]?
A: 8.77 µM (inactive)

Q: What about the GI50 [20] of the same compound?
A: 11 µM (inactive)

Q: What about the GI50 [21] of the same compound?
A: 6.85 µM (inactive)

Q: What about the GI50 [22] of the same compound?
A: 14.1 µM (inactive)

Q: And the GI50 [23]?
A: 7.21 µM (inactive)

Q: What about the GI50 [24] of the same compound?
A: 2.78 µM (inactive)

Q: And the GI50 [25]?
A: 2.82 µM (inactive)

Q: And the GI50 [26]?
A: 2.9 µM (inactive)

Q: What about the GI50 [27] of the same compound?
A: 11.2 µM (inactive)

Q: What about the GI50 [28] of the same compound?
A: 5.15 µM (inactive)

Q: And the GI50 [29]?
A: 2.62 µM (inactive)

Q: And the GI50 [30]?
A: 18.9 µM (inactive)

Q: And the GI50 [31]?
A: 5.05 µM (inactive)

Q: And the GI50 [32]?
A: 13.7 µM (inactive)

Q: What about the GI50 [33] of the same compound?
A: 7.73 µM (inactive)

Q: What about the GI50 [34] of the same compound?
A: 3.03 µM (inactive)

Q: And the GI50 [35]?
A: 10.9 µM (inactive)

Q: What about the GI50 [36] of the same compound?
A: 3.74 µM (inactive)

Q: What about the GI50 [37] of the same compound?
A: 16.7 µM (inactive)

Q: And the GI50 [38]?
A: 4.17 µM (inactive)

Q: And the GI50 [39]?
A: 38.3 µM (inactive)

Q: Which GI50 [1] does the source give for O=C1c2ccccc2C(=O)[C@@]23O[C@@]12C1(Oc2cccc4cccc(c24)O1)[C@@H]1O[C@@H]1[C@@H]3O here?
A: 1.76 µM (inactive)

Q: What about the GI50 [2] of the same compound?
A: 3.36 µM (inactive)

Q: And the GI50 [3]?
A: 1.66 µM (inactive)

Q: What about the GI50 [4] of the same compound?
A: 9.18 µM (inactive)

Q: What about the GI50 [40] of the same compound?
A: 8.39 µM (inactive)

Q: And the GI50 [5]?
A: 15.8 µM (inactive)

Q: And the GI50 [41]?
A: 17.2 µM (inactive)

Q: And the GI50 [6]?
A: 2.64 µM (inactive)

Q: What about the GI50 [42] of the same compound?
A: 6.93 µM (inactive)

Q: And the GI50 [9]?
A: 15.1 µM (inactive)

Q: What about the GI50 [43] of the same compound?
A: 5.01 µM

Q: What about the GI50 [10] of the same compound?
A: 12.5 µM (inactive)

Q: And the GI50 [44]?
A: 4.23 µM (inactive)

Q: And the GI50 [11]?
A: 13.3 µM (inactive)

Q: What about the GI50 [45] of the same compound?
A: 14.8 µM (inactive)

Q: And the GI50 [46]?
A: 24.4 µM (inactive)

Q: What about the GI50 [13] of the same compound?
A: 13.6 µM (inactive)

Q: And the GI50 [47]?
A: 9.46 µM (inactive)

Q: And the GI50 [48]?
A: 6.17 µM (inactive)

Q: What about the GI50 [14] of the same compound?
A: 2.68 µM (inactive)

Q: What about the GI50 [15] of the same compound?
A: 19.2 µM (inactive)

Q: What about the GI50 [16] of the same compound?
A: 8.97 µM (inactive)

Q: What about the GI50 [18] of the same compound?
A: 9.91 µM (inactive)

Q: And the GI50 [19]?
A: 7.1 µM (inactive)

Q: What about the GI50 [20] of the same compound?
A: 9.68 µM (inactive)

Q: And the GI50 [21]?
A: 2.95 µM (inactive)

Q: What about the GI50 [22] of the same compound?
A: 10.7 µM (inactive)

Q: And the GI50 [49]?
A: 14.9 µM (inactive)

Q: What about the GI50 [50] of the same compound?
A: 3.66 µM (inactive)

Q: What about the GI50 [23] of the same compound?
A: 14.2 µM (inactive)

Q: And the GI50 [51]?
A: 5.05 µM (inactive)

Q: What about the GI50 [52] of the same compound?
A: 20.5 µM (inactive)

Q: And the GI50 [24]?
A: 15.8 µM (inactive)

Q: What about the GI50 [25] of the same compound?
A: 13.6 µM (inactive)

Q: And the GI50 [53]?
A: 9.16 µM (inactive)

Q: And the GI50 [27]?
A: 4.19 µM (inactive)

Q: And the GI50 [54]?
A: 14.6 µM (inactive)

Q: What about the GI50 [28] of the same compound?
A: 4.94 µM (inactive)

Q: What about the GI50 [29] of the same compound?
A: 2.23 µM (inactive)

Q: And the GI50 [55]?
A: 11.3 µM (inactive)

Q: And the GI50 [30]?
A: 17.8 µM (inactive)

Q: And the GI50 [56]?
A: 2.7 µM (inactive)

Q: And the GI50 [31]?
A: 4.65 µM (inactive)

Q: What about the GI50 [57] of the same compound?
A: 11.6 µM (inactive)

Q: What about the GI50 [32] of the same compound?
A: 12.6 µM (inactive)

Q: What about the GI50 [58] of the same compound?
A: 2.9 µM (inactive)

Q: And the GI50 [33]?
A: 9.86 µM (inactive)

Q: What about the GI50 [34] of the same compound?
A: 12.9 µM (inactive)

Q: And the GI50 [35]?
A: 20.6 µM (inactive)

Q: And the GI50 [36]?
A: 14 µM (inactive)

Q: And the GI50 [59]?
A: 18.4 µM (inactive)

Q: What about the GI50 [37] of the same compound?
A: 13.4 µM (inactive)

Q: What about the GI50 [60] of the same compound?
A: 11.1 µM (inactive)

Q: What about the GI50 [38] of the same compound?
A: 4.4 µM (inactive)

Q: What about the GI50 [61] of the same compound?
A: 4.71 µM (inactive)

Q: What about the GI50 [62] of the same compound?
A: 15.2 µM (inactive)

Q: And the GI50 [39]?
A: 1.43 µM (inactive)

Q: What about the GI50 [63] of the same compound?
A: 26.9 µM (inactive)

Q: And the GI50 [64]?
A: 4.22 µM (inactive)
